{"source": "patent US9415067B2", "about": "“Genetic test for liver copper accumulation in dogs and low copper pet diet” (Mars, Inc., priority 2009, dated 2016)", "key": {"[1]": {"system": "canine dermal fibroblast cells ATP7A^C/C, ATP7A^C/T, ATP7A^T/T", "assay": "64Cu incorporation and efflux (washout) in canine primary dermal fibroblasts, gamma counting", "type": "cell-based, dog", "details": "100 μM", "experimental": "FIGS. 7A and 7B show copper isotope measurements in canine primary fibroblast cells. Copper isotope (64Cu) measurements in ATP7A^C/C, ATP7A^C/T and ATP7A^T/T cells after (A) 24 h or 48 h incubation with 10 μM, 50 μM and 100 μM 64Cu, or (B) 24 hrs incubation, followed by extensive washing and incubation in non copper isotope media for 2 h. Gamma-counts were corrected for cell culture conditions by means of a protein and MTS assay. Data points for 24 hr incubation represent the mean+/−SEM from two independent experiments performed in duplicate and expressed as counts per minute (cpm) of total cell protein. Other data points represent mean+/−SEM from one experiment in duplicate.\nThe canine dermal fibroblast cells CDFIB44, CDFIB62 and CDFIB111 were isolated from euthanized female Labradors. Blood samples, taken prior to euthanizing were subject to the genetic test of the invention to ascertain increased risk to the disease. CDFIB111 was homozygous for the ATP7A SNP and CDFIB62 was heterozygote. […] was used as a control. […]\nFor copper treatment, cells were incubated in 10, 50, and 100 μM copper for 24 or 48 h. […] Emission was measured in individual tubes containing media, washing steps, or lysate in a Packard B5003 gamma counter (Packard BioScience Benelux, Groningen, the Netherlands) between 450 and 800 keV for 2 minutes. […] Cells were then analysed for copper as described above. Copper accumulation was normalized to the protein concentration of the cell lysate (quantified using a Bio Rad Protein Assay Kit, Bio Rad) and an MTS colorimetric assay (3-[4,5-dimethylthiazol-2-yl]-5-[3-carboxymethoxyphenyl]-2-[4-sulfophenyl]-2H-tetrazolium) (Promega) was run in parallel. This quantitative assay detects living but not dead cells. The absorbance at 490 nm (test wavelength) and at 650 nm (reference wavelength) was measured using an enzyme-linked immunosorbent assay microplate reader (Bio-Rad); wells containing culture medium but no cells served as blanks. […]"}, "[2]": {"system": "hepatic copper accumulation", "assay": "Diet trial with randomized placebo-controlled zinc application: quantitative hepatic copper by neutron activation analysis of liver biopsies", "type": "in vivo, dog", "experimental": "All dogs were fed the same diet. […] The pharmacist was the only person aware of group allocations until completion of the study. Hepatic copper concentrations and histopathology were assessed along with clinical examinations and blood-work before and after treatment for a mean of 8 months (range 5-13), and 16 months (range 12-25). Plasma zinc concentrations were measured at additional time points during treatment.\nAll dogs had completed their treatment with penicillamine prior to the start of this study. A medical history was obtained from all dogs and a physical examination was performed. […] Two biopsies were fixed in 10 percent neutral buffered formalin, and one biopsy was stored in a copper-free container for quantitative copper determination.\nA quantitative assay for copper in liver tissue was performed by neutron activation analysis, according to a protocol described by Teske et al, using the facilities described by Bode (Bode, P. (1990) Journal of Trace and Microprobe Techniques 8: 139; Teske et al. (1992) Vet Rec 131: 30-32). Quantitative copper concentrations were measured in lyophilised liver biopsies and reported in mg/kg dry weight liver.\nAll dog owners were provided with the same specially manufactured diet. […] Metabolizable energy (measured according to Association of American Feed Control Officials protocol): 1650 kcal/kg as fed). […]"}, "[3]": {"assay": "Pharmacokinetic study of oral zinc gluconate, plasma zinc by atomic absorption spectrometry", "type": "in vivo", "details": "mean of dog 1 and dog 2", "experimental": "Two unrelated nine-year old, healthy Labrador Retrievers (1 female and 1 male) were used in a pharmacokinetic study. Food was withheld for a 12-hour period prior to oral administration of zinc, and during the initial 6-hour testing period. Water was freely available. […] Heparinized blood samples (4 ml) were collected from the jugular vein before dosing (time 0) and 15, 30, 45, 60, 90, 120 minutes, and 4, 8, 12 and 24 hours after application of the drug. Plasma was stored at −20° C. until analysis for zinc using atomic absorption spectrometry.\nIn addition the test was used to detect a difference between group-1 and group-2 before the study, at recheck-1, and at recheck-2 (significance level p<0.05)."}, "[4]": {"system": "hepatic copper accumulation", "assay": "Example 7: hepatic copper before penicillamine, after penicillamine and after diet", "type": "in vivo, dog", "details": "all dogs fed the diet of Example 6, data not shown", "experimental": "FIG. 3 illustrates the effectiveness of the diet of the invention on hepatic copper concentrations (mg/kg dry weight) in 18 Labrador Retrievers compared with the effect of penicillamine alone. The key to the x-axis is as follows: 1=pre-penicillamine, 2=post-penicillamine/pre-food, 3=post-food. […] The dotted line represents the normal level of hepatic copper for adult dogs.\nDuring an investigation of the effect of zinc on hepatic copper concentration, hepatic copper concentration was measured in 18 pure-bred Labrador Retrievers. Half of the dogs were provided with a supplement of zinc and the other half were provided with a placebo. All of the dogs were fed the diet of Example 6. Hepatic copper 25 concentration was measured using the method of Example 6 at 3 time points: (1) before treatment with penicillamine; (2) after treatment with penicillamine but before treatment with the diet of Example 6; and (3) after the diet treatment."}, "[5]": {"details": "24 h incubation, 2 h of washout"}}}
{"compound": "[64Cu]", "note": "[Cu64]", "values": [{"measurement": "isotope retained by ATP7A^C/C cells", "setting": "[1]; [5]", "value": "approximately 45%"}, {"measurement": "isotope retained by ATP7A^T/T cells", "setting": "[1]; [5]", "value": "~90", "unit": "%"}, {"measurement": "increase in incorporation of copper in ATP7A^T/T and ATP7A^C/T cells compared to ATP7A^C/C cells", "setting": "[1]; after 24 h and 48 h", "value": "approximately two-fold"}]}
{"compound": "CC(C)(S)[C@@H](N)C(=O)O", "note": "[penicillamine]", "values": [{"measurement": "mean hepatic copper concentration after completion of treatment with penicillamine", "setting": "[2]; 24 Labradors at the start of the diet trial, reference range 400 mg/kg dry weight", "value": 894, "unit": "mg/kg dry weight"}]}
{"compound": "zinc gluconate", "values": [{"measurement": "apparent oral clearance (CL/F)", "setting": "[3]", "value": 2.116898, "unit": "mL/min/kg"}, {"measurement": "effect of adjunctive zinc on the de-coppering effect of the diet", "setting": "[2]; diet + zinc gluconate 7.5 mg/kg PO BID versus diet + placebo", "value": "did not amplify the de-coppering effect"}, {"measurement": "difference between copper levels in dogs treated with zinc and with the placebo", "setting": "[4]", "value": "no significant difference"}]}
